Measured values as given in ChEMBL document CHEMBL4507317, “Data for DCP probe BAY-899” (2021).

Assays:
[1] = target: Phosphatidylinositol 3-kinase C2 domain-containing subunit gamma (Homo sapiens) (UniProt O75747); details: Compound concentration 1000.0 nM
[2] = target: Mitogen-activated protein kinase kinase kinase 10 (Homo sapiens) (UniProt Q02779); details: Compound concentration 1000.0 nM
[3] = target: Dual specificity mitogen-activated protein kinase kinase 4 (Homo sapiens) (UniProt P45985); details: Compound concentration 1000.0 nM
[4] = target: cAMP-dependent protein kinase catalytic subunit beta (Homo sapiens) (UniProt P22694); details: Compound concentration 1000.0 nM
[5] = target: Serine/threonine-protein kinase D1 (Homo sapiens) (UniProt Q15139); details: Compound concentration 1000.0 nM
[6] = target: Activin receptor type-1-like (Homo sapiens) (UniProt P37023); details: Compound concentration 1000.0 nM
[7] = test system: Proto-oncogene tyrosine-protein kinase receptor Ret (Homo sapiens), P07949 [V804M]; details: Compound concentration 1000.0 nM
[8] = target: Rho-associated protein kinase 1 (Homo sapiens) (UniProt Q13464); details: Compound concentration 1000.0 nM
[9] = target: Tyrosine-protein kinase ABL1 (Homo sapiens) (UniProt P00519); details: Compound concentration 1000.0 nM
[10] = target: Casein kinase II subunit alpha' (Homo sapiens) (UniProt P19784); details: Compound concentration 1000.0 nM
[11] = test system: Hepatocyte growth factor receptor (Homo sapiens), P08581 [M1250T]; details: Compound concentration 1000.0 nM
[12] = target: Interleukin-1 receptor-associated kinase 4 (Homo sapiens) (UniProt Q9NWZ3); details: Compound concentration 1000.0 nM
[13] = target: Mitogen-activated protein kinase kinase kinase 4 (Homo sapiens) (UniProt Q9Y6R4); details: Compound concentration 1000.0 nM
[14] = target: Ribosomal protein S6 kinase alpha-1 (Homo sapiens) (UniProt Q15418); details: Compound concentration 1000.0 nM
[15] = test system: Leucine-rich repeat serine/threonine-protein kinase 2 (Homo sapiens), Q5S007 [G2019S]; details: Compound concentration 1000.0 nM
[16] = target: Dual specificity mitogen-activated protein kinase kinase 6 (Homo sapiens) (UniProt P52564); details: Compound concentration 1000.0 nM
[17] = target: Ankyrin repeat and protein kinase domain-containing protein 1 (Homo sapiens) (UniProt Q8NFD2); details: Compound concentration 1000.0 nM
[18] = target: Serine/threonine-protein kinase N2 (Homo sapiens) (UniProt Q16513); details: Compound concentration 1000.0 nM
[19] = target: D(2) dopamine receptor (Homo sapiens) (UniProt P14416); details: Compound concentration 10.0 uM
[20] = target: Macrophage colony-stimulating factor 1 receptor (Homo sapiens) (UniProt P07333); details: Compound concentration 1000.0 nM
[21] = target: Beta-adrenergic receptor kinase 1 (Homo sapiens) (UniProt P25098); details: Compound concentration 1000.0 nM
[22] = target: Maternal embryonic leucine zipper kinase (Homo sapiens) (UniProt Q14680); details: Compound concentration 1000.0 nM
[23] = target: Tyrosine-protein kinase JAK2 (Homo sapiens) (UniProt O60674); details: Compound concentration 1000.0 nM
[24] = target: T1, Alpha-1A adrenergic receptor (Homo sapiens) (UniProt P35348); details: Compound concentration 10.0 uM
T1 sequence (whole entry): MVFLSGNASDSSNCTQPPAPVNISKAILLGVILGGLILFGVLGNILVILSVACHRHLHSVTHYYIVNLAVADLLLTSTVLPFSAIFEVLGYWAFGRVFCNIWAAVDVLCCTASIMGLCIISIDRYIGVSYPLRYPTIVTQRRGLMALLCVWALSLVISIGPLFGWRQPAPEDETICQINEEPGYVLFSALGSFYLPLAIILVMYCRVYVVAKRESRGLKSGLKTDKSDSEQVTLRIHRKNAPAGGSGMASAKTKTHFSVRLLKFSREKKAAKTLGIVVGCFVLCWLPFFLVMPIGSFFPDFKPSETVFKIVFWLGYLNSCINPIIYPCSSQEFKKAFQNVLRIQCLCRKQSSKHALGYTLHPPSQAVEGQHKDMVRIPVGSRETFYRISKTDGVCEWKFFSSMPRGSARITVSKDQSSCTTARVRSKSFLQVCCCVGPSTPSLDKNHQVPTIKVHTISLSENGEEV

[25] = target: 3-phosphoinositide-dependent protein kinase 1 (Homo sapiens) (UniProt O15530); details: Compound concentration 1000.0 nM
[26] = target: NUAK family SNF1-like kinase 2 (Homo sapiens) (UniProt Q9H093); details: Compound concentration 1000.0 nM
[27] = target: Muscle, skeletal receptor tyrosine-protein kinase (Homo sapiens) (UniProt O15146); details: Compound concentration 1000.0 nM
[28] = target: Activin receptor type-2A (Homo sapiens) (UniProt P27037); details: Compound concentration 1000.0 nM
[29] = target: Receptor tyrosine-protein kinase erbB-3 (Homo sapiens) (UniProt P21860); details: Compound concentration 1000.0 nM
[30] = target: Ribosomal protein S6 kinase alpha-2 (Homo sapiens) (UniProt Q15349); details: Compound concentration 1000.0 nM
[31] = target: Mitogen-activated protein kinase 4 (Homo sapiens) (UniProt P31152); details: Compound concentration 1000.0 nM
[32] = target: Cyclin-dependent kinase 8 (Homo sapiens) (UniProt P49336); details: Compound concentration 1000.0 nM
[33] = target: Serine/threonine-protein kinase 24 (Homo sapiens) (UniProt Q9Y6E0); details: Compound concentration 1000.0 nM
[34] = target: Histamine H4 receptor (Homo sapiens) (UniProt Q9H3N8); details: Compound concentration 10.0 uM
[35] = target: Tyrosine-protein kinase SYK (Homo sapiens) (UniProt P43405); details: Compound concentration 1000.0 nM
[36] = target: Homeodomain-interacting protein kinase 2 (Homo sapiens) (UniProt Q9H2X6); details: Compound concentration 1000.0 nM
[37] = target: Kappa-type opioid receptor (Homo sapiens, UniProt P41145); details: Compound concentration 10.0 uM
[38] = target: Macrophage-stimulating protein receptor (Homo sapiens) (UniProt Q04912); details: Compound concentration 1000.0 nM
[39] = target: Cyclin-dependent kinase 2 homolog (Plasmodium falciparum (isolate 3D7)) (UniProt P61075); details: Compound concentration 1000.0 nM

Sequence of Cyclin-dependent kinase 8 (Homo sapiens) (P49336 whole entry): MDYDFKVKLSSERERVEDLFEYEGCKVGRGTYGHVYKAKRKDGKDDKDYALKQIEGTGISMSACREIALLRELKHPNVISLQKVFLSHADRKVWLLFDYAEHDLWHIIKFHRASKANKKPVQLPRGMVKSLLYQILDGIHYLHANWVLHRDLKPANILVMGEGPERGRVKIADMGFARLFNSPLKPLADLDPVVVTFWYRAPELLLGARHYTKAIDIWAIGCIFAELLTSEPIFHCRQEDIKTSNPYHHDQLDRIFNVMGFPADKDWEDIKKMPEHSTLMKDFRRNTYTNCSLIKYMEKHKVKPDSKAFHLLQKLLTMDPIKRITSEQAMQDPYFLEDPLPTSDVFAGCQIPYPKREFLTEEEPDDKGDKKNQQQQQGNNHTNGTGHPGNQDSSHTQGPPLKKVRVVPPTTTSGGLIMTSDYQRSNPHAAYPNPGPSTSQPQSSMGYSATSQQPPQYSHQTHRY
Sequence of Macrophage colony-stimulating factor 1 receptor (Homo sapiens) (P07333 whole entry): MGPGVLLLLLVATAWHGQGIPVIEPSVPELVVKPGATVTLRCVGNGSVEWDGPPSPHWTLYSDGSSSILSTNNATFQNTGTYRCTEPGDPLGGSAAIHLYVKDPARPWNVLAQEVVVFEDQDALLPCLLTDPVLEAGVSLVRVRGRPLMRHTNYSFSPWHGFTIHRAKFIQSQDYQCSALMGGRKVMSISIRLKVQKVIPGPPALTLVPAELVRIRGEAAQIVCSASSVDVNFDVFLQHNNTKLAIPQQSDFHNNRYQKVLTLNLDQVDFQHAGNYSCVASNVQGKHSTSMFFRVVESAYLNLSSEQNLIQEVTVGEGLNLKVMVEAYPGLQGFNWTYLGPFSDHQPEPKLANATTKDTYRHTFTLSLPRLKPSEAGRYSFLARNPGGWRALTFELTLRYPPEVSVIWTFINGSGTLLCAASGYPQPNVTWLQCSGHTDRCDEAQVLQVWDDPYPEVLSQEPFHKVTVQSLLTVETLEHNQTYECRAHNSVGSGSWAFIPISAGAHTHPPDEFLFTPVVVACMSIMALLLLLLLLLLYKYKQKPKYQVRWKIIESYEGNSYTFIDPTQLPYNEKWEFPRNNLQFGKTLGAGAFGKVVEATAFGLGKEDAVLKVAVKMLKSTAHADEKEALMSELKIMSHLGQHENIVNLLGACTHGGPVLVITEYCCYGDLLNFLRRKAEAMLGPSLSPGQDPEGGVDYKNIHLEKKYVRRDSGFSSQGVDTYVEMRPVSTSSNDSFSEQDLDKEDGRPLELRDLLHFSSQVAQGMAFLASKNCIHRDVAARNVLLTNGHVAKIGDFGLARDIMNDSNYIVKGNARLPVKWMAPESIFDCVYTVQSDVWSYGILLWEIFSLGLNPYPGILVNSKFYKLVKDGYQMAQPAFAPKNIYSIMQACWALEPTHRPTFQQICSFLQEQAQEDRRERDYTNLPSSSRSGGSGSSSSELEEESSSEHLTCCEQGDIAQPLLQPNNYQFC
Sequence of Maternal embryonic leucine zipper kinase (Homo sapiens) (Q14680 whole entry, looked up): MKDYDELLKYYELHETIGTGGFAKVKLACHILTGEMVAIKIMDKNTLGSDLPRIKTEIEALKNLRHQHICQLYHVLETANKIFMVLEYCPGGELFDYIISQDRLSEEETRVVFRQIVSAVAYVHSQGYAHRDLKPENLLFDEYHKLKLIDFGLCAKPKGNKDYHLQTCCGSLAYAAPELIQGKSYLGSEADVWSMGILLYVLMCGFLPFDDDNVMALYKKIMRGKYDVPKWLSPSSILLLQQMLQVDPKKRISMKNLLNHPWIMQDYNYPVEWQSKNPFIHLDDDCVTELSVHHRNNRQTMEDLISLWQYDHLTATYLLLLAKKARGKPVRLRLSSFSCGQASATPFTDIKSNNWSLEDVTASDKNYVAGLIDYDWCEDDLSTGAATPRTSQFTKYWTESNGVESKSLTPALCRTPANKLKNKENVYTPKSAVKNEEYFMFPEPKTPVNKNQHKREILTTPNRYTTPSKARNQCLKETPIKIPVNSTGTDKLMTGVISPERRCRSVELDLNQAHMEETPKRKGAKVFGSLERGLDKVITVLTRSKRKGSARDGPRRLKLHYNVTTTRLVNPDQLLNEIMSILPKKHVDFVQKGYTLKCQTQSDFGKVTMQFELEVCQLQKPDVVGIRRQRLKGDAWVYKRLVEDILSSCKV
Sequence of Beta-adrenergic receptor kinase 1 (Homo sapiens) (P25098 whole entry): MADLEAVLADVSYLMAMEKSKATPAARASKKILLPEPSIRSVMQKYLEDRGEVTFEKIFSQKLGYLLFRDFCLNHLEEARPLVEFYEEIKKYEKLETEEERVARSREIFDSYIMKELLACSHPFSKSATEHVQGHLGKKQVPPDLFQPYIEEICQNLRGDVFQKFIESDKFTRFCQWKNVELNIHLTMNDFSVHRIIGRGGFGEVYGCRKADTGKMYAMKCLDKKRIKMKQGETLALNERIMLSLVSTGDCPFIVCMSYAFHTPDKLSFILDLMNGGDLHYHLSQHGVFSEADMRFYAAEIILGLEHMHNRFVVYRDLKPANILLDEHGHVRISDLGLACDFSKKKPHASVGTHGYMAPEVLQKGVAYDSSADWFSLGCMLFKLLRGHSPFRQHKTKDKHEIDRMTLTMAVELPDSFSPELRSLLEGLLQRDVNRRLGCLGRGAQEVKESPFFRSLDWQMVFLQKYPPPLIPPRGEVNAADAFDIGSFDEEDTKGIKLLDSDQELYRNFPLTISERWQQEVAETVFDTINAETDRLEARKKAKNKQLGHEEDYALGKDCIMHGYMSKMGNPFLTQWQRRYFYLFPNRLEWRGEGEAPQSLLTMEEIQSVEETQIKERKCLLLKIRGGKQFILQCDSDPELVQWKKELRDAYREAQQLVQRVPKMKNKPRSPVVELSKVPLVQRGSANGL
Sequence of NUAK family SNF1-like kinase 2 (Homo sapiens) (Q9H093 whole entry): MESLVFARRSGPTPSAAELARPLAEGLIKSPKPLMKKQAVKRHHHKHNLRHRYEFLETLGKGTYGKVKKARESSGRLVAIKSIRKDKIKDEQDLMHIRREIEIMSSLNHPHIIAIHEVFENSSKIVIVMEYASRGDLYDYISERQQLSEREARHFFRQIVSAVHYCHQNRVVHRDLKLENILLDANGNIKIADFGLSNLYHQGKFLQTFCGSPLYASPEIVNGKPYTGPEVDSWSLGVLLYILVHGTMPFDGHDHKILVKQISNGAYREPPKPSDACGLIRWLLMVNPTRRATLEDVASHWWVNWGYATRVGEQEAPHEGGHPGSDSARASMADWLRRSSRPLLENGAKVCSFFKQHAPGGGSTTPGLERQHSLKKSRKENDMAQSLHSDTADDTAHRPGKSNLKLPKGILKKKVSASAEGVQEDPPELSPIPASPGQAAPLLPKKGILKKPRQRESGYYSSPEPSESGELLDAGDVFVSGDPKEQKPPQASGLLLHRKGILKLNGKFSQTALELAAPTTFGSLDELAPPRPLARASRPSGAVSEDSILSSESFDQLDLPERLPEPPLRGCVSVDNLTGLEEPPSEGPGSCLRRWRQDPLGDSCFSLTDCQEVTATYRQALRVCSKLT
Sequence of Serine/threonine-protein kinase N2 (Homo sapiens) (Q16513 whole entry, looked up): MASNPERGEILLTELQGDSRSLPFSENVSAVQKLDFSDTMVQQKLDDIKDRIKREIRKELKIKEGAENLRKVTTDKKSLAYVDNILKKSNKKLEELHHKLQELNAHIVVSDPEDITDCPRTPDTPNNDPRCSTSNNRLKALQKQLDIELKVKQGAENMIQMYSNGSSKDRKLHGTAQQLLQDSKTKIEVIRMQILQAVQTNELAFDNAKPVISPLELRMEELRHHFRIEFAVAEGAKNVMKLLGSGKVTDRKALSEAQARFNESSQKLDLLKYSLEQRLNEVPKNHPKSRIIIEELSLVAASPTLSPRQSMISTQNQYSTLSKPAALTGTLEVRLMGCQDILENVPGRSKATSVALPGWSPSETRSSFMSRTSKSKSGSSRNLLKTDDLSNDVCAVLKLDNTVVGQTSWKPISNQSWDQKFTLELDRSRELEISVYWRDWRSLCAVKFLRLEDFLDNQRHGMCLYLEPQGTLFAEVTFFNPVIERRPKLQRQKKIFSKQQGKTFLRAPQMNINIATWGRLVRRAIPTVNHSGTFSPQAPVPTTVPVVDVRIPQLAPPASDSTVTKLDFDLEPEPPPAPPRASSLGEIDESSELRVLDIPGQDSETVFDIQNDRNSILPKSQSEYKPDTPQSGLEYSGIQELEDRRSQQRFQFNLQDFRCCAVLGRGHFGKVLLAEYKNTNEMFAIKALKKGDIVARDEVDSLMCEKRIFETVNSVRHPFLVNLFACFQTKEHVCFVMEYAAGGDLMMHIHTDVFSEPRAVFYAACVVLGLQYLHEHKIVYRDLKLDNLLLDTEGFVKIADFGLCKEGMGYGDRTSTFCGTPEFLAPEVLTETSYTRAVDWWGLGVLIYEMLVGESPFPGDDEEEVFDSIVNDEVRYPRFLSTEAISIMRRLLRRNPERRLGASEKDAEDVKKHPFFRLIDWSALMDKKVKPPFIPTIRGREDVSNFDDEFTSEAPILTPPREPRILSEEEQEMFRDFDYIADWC
Sequence of Interleukin-1 receptor-associated kinase 4 (Homo sapiens) (Q9NWZ3 whole entry): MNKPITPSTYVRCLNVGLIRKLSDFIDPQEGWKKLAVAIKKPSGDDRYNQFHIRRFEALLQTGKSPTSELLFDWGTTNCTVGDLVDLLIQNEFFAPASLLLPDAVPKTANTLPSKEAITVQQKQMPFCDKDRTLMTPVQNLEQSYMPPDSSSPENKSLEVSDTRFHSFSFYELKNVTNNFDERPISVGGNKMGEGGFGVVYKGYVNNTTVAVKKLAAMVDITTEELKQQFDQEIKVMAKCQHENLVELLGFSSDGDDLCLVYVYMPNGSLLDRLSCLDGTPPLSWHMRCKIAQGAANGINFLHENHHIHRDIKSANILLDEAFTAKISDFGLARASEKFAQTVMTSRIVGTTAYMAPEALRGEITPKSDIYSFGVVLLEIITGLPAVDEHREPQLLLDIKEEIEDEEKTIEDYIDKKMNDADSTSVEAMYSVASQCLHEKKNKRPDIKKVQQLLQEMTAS

O=C(Nc1ccc(Oc2ccc(F)cc2)cc1)N1CCc2ncccc2[C@H]1c1ccc(F)cc1 [BAY-897]
residual activity [1]: 100%
residual activity [2]: 100%
residual activity [3]: 86%
residual activity [4]: 83%
residual activity [5]: 94%
residual activity [6]: 81%
residual activity [7]: 94%
residual activity [8]: 100%
residual activity [9]: 100%
residual activity [10]: 100%
residual activity [11]: 97%
residual activity [12]: 96%
residual activity [13]: 100%
residual activity [14]: 79%
residual activity [15]: 100%
residual activity [16]: 100%
residual activity [17]: 92%
residual activity [18]: 80%
inhibition [19]: -3.97%
residual activity [20]: 95%
residual activity [21]: 92%
residual activity [22]: 78%
residual activity [23]: 100%
inhibition [24]: 16.2%
residual activity [25]: 88%
residual activity [26]: 82%
residual activity [27]: 92%
residual activity [28]: 100%
residual activity [29]: 100%
residual activity [30]: 94%
residual activity [31]: 95%
residual activity [32]: 95%
residual activity [33]: 93%
inhibition [34]: 7.56%
residual activity [35]: 91%
residual activity [36]: 79%
inhibition [37]: 79.3%
residual activity [38]: 98%
residual activity [39]: 87%

O=C(Nc1cnc(Oc2ccc(F)cc2)nc1)N1CCc2ncccc2[C@@H]1c1ccc(F)cc1 [BAY-899]
residual activity [1]: 97%
residual activity [2]: 77%
residual activity [3]: 100%
residual activity [4]: 85%
residual activity [5]: 100%
residual activity [6]: 99%
residual activity [7]: 94%
residual activity [8]: 100%
residual activity [9]: 94%
residual activity [10]: 100%
residual activity [11]: 100%
residual activity [12]: 95%
residual activity [13]: 89%
residual activity [14]: 71%
residual activity [15]: 100%
residual activity [16]: 77%
residual activity [17]: 100%
residual activity [18]: 78%
inhibition [19]: 1.65%
residual activity [20]: 93%
residual activity [21]: 90%
residual activity [22]: 66%
residual activity [23]: 84%
inhibition [24]: -3.5%
residual activity [25]: 97%
residual activity [26]: 100%
residual activity [27]: 86%
residual activity [28]: 83%
residual activity [29]: 100%
residual activity [30]: 79%
residual activity [31]: 95%
residual activity [32]: 70%
residual activity [33]: 77%
inhibition [34]: -4.41%
residual activity [35]: 84%
residual activity [36]: 91%
inhibition [37]: 56.3%
residual activity [38]: 100%
residual activity [39]: 100%
